Assay results from US7491849B2, “Oligoamine compounds and derivatives thereof for cancer therapy” (priority 2001, dated 2009).

What was measured:
PC-3 Cells = experiment: Colony forming assay (CFE), PC-3 cells; assay type: cell-based; settings: ca. 1.5-2 μM, 5 days incubation, FIG. 2
Protocol: Assessment of Oligoamine Cytotoxicity by Colony Forming Assay. The cytotoxicity of the oligoamines was further assayed by the colony forming assay (CFE). Four saturated oligoamines were chosen for their ability to kill DuPro cells after 5 days of incubation. Oligoamines SL-11159, SL-11175 and SL-11226 had over 4 logs of cell kill on day 5 of treatment at 1-2 μM concentrations; see FIG. 1. […] The colony forming assay was performed as follows.
Colony Forming Efficiency Assay. All cell lines used in this assay have already been optimized with respect to the number of feeder cells and length of incubation time for observable colony formation. Cells were washed, harvested, and replated in quadruplicate at appropriate dilution into 60 mm plastic Petri dishes. The Petri dishes were prepared not more than 24 hr in advance with 4 ml of supplemented Eagle's minimum essential medium containing 5-10% fetal bovine serum (standardized for each cell line) for all cell lines. Cells were incubated for the previously standardized number of days in a 95% air/5% CO2 atmosphere. The plates were stained with 0.125% crystal violet in methanol and counted. Results are expressed as the surviving fraction of an appropriate control.

DuPro Cells = experiment: Cellular polyamine and oligoamine levels, DuPro cells (HPLC); assay type: cell-based
Protocol: Cellular Uptake of Oligoamines. There was considerable uptake of oligoamines by the cancer cell lines; see Table 3A (DuPro cells) and Table 3B (PC-3 cells). […] While not wishing to be limited by any particular theory of operation, the cytotoxicity is likely related to their strong aggregation effect on DNA.
Polyamine Analysis. An appropriate number of cells were taken from harvested samples and centrifuged at 1000 rpm at 4° C. for 5 min. The cells were washed twice with chilled Dulbecco's isotonic phosphate buffer (pH 7.4) by centrifugation at 1000 rpm at 4° C. and resuspended in the same buffer. After the final centrifugation, the supernatant was decanted, and […] of 8% sulfosalycilic acid was added to the cell pellet. The cells were sonicated, and the mixture was kept at 4° C. for at least 1 h. After centrifugation at 8000 g for 5 min, the supernatant was removed for analysis. An appropriate volume (50-100 μl) was fluorescence-labeled by derivatizing with dansyl chloride. Labeled polyamines were loaded onto a C-18 high-performance liquid chromatography column and separated by gradient elution with acetonitrile/water at 50° C. Peaks were detected and quantitated using Shimadzu HPLC fluorescence monitor coupled with a Spectra-Physics peak integrator. Because polyamine levels vary with environmental conditions, control cultures were sampled for each experiment.

[1] = Day 4 of Treatment, analog conc. 0.8 μM
[2] = Day 4 of Treatment, analog conc. 1.6 μM
[3] = Day 6 of Treatment, analog conc. 0.8 μM

SMILES | logs of cells killed (colony survival) (PC-3 Cells) | Polyamine levels, Analog (cellular oligoamine level) (DuPro Cells; [1]) [nmoles/10^6 cells] | Polyamine levels, Put (DuPro Cells; [1]) [nmoles/10^6 cells] | Polyamine levels, Analog (cellular oligoamine level) (DuPro Cells; [2]) [nmoles/10^6 cells] | Polyamine levels, Put (DuPro Cells; [2]) [nmoles/10^6 cells] | Polyamine levels, Spd (DuPro Cells; [1]) [nmoles/10^6 cells] | Polyamine levels, Spm (DuPro Cells; [1]) [nmoles/10^6 cells] | Polyamine levels, Analog (cellular oligoamine level) (DuPro Cells; [3]) [nmoles/10^6 cells] | Polyamine levels, Put (DuPro Cells; [3]) [nmoles/10^6 cells]
CCNCCCCNCCCCNCCCCNCCCCNCCCCNCCCCNCCCCNCCCCNCCCCNCC.Cl.Cl.Cl.Cl.Cl.Cl.Cl.Cl.Cl.Cl [SL-11159] | four | 0.525 | 0.560 | 0.513 | 0.137 | – | – | – | –
CCNCCCCNCCCCNCCCCNCCCCNCCCCNCCCCNCCCCNCCCCNCCCCNCCCCNCCCCNCC.Cl.Cl.Cl.Cl.Cl.Cl.Cl.Cl.Cl.Cl.Cl.Cl [SL-11226] | – | 0.032 | 0.593 | – | – | 0.017 | 0.067 | 0.022 | 0.548
